Experimental data: ChEMBL document CHEMBL1201862, “PubChem BioAssay data set” (2004)
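Five compound concentrations were applied to cells in 96-well plates for 48 hours; endpoints were derived by simple linear interpolation of the resulting dose-response curve. GI50: concentration for 50% inhibition of growth.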 The source made the active and inactive calls. No stated cut-off is given here; in the data, active = GI50 up to about 1.1 µM and inactive = higher.

How the values were obtained:
Assay in all cases: growth of human tumour cells (NCI), 48 h
SK-MEL-2 = tested on: SK-MEL-2
SNB-75 = tested on: SNB-75
UACC-257 = tested on: UACC-257
XF498 = tested on: XF498
NCI-H460 = tested on: NCI-H460
LOX IMVI = tested on: LOX IMVI
786-0 = tested on: 786-0
Malme-3M = tested on: Malme-3M
MOLT-4 = tested on: MOLT-4
UACC-62 = tested on: UACC-62
NCI-H522 = tested on: NCI-H522
NCI-H23 = tested on: NCI-H23
ACHN = tested on: ACHN
LXFL 529 = tested on: LXFL 529
SF-539 = tested on: SF-539
KM-20L2 = tested on: KM-20L2
SK-MEL-28 = tested on: SK-MEL-28
OVCAR-3 = tested on: OVCAR-3
HCT-15 = tested on: HCT-15
TK-10 = tested on: TK-10
UO-31 = tested on: UO-31
HL-60 = tested on: HL-60
SW-620 = tested on: SW-620
RPMI-8226 = tested on: RPMI-8226
CCRF-CEM = tested on: CCRF-CEM
SK-OV-3 = tested on: SK-OV-3
EKVX = tested on: EKVX
M14 = tested on: M14
HT-29 = tested on: HT-29
DMS-114 = tested on: DMS-114
RXF 631 = tested on: RXF 631
A549 = tested on: A549
HOP-92 = tested on: HOP-92
SNB-78 = tested on: SNB-78
OVCAR-5 = tested on: OVCAR-5
CAKI-1 = tested on: CAKI-1
KM12 = tested on: KM12
K562 = tested on: K562
HCC 2998 = tested on: HCC 2998
IGROV-1 = tested on: IGROV-1
SK-MEL-5 = tested on: SK-MEL-5
DMS-273 = tested on: DMS-273
SN12C = tested on: SN12C
HOP-62 = tested on: HOP-62
SF-268 = tested on: SF-268
OVCAR-8 = tested on: OVCAR-8
SF-295 = tested on: SF-295
COLO 205 = tested on: COLO 205
RXF 393 = tested on: RXF 393
M19-MEL = tested on: M19-MEL
DLD-1 = tested on: DLD-1
OVCAR-4 = tested on: OVCAR-4
SNB-19 = tested on: SNB-19
HOP-18 = tested on: HOP-18
HCT-116 = tested on: HCT-116
A498 = tested on: A498
U-251 = tested on: U-251
NCI-H226 = tested on: NCI-H226

**Q.** What does the source list for CC(C)(C)C(C#N)(C#N)c1ccc(C(C#N)(C#N)C(C)(C)C)nn1?
**A.** GI50 (SK-MEL-2): > 100 µM (inactive); GI50 (SNB-75): 23.6 µM (inactive); GI50 (UACC-257): > 100 µM (inactive); GI50 (XF498): 38.6 µM (inactive); GI50 (NCI-H460): > 100 µM (inactive); GI50 (LOX IMVI): > 100 µM (inactive); GI50 (786-0): 74 µM (inactive); GI50 (Malme-3M): > 100 µM (inactive); GI50 (MOLT-4): > 100 µM (inactive); GI50 (UACC-62): > 100 µM (inactive); GI50 (NCI-H522): > 100 µM (inactive); GI50 (NCI-H23): > 100 µM (inactive); GI50 (ACHN): 82 µM (inactive); GI50 (LXFL 529): > 100 µM (inactive); GI50 (SF-539): > 100 µM (inactive); GI50 (KM-20L2): > 100 µM (inactive); GI50 (SK-MEL-28): > 100 µM (inactive); GI50 (OVCAR-3): > 100 µM (inactive); GI50 (HCT-15): > 100 µM; GI50 (TK-10): > 100 µM (inactive); GI50 (UO-31): > 100 µM (inactive); GI50 (HL-60): > 100 µM (inactive); GI50 (SW-620): > 100 µM (inactive); GI50 (RPMI-8226): > 100 µM (inactive); GI50 (CCRF-CEM): > 100 µM (inactive); GI50 (SK-OV-3): 41.3 µM (inactive); GI50 (EKVX): > 100 µM (inactive); GI50 (M14): > 100 µM (inactive); GI50 (HT-29): > 100 µM (inactive); GI50 (DMS-114): > 100 µM (inactive); GI50 (RXF 631): > 100 µM (inactive); GI50 (A549): > 100 µM (inactive); GI50 (HOP-92): 72.4 µM (inactive); GI50 (SNB-78): 74.8 µM (inactive); GI50 (OVCAR-5): > 100 µM (inactive); GI50 (CAKI-1): 83 µM (inactive); GI50 (KM12): > 100 µM (inactive); GI50 (K562): > 100 µM (inactive); GI50 (HCC 2998): > 100 µM (inactive); GI50 (IGROV-1): > 100 µM (inactive); GI50 (SK-MEL-5): > 100 µM (inactive); GI50 (DMS-273): > 100 µM (inactive); GI50 (SN12C): > 100 µM (inactive); GI50 (HOP-62): > 100 µM (inactive); GI50 (SF-268): 86.7 µM (inactive); GI50 (OVCAR-8): > 100 µM (inactive); GI50 (SF-295): > 100 µM (inactive); GI50 (COLO 205): > 100 µM (inactive); GI50 (RXF 393): 43.3 µM (inactive); GI50 (M19-MEL): > 100 µM (inactive); GI50 (DLD-1): > 100 µM (inactive); GI50 (OVCAR-4): 89.7 µM (inactive); GI50 (SNB-19): 63.4 µM (inactive)

**Q.** COC(=O)/C=C(C)/C=C/c1c(C)c(C(C)=O)c(C)n1C was tested. Which GI50 (HOP-18) did it give?
**A.** > 100 µM (inactive)

**Q.** And the GI50 (UACC-257)?
**A.** > 100 µM (inactive)

**Q.** And the GI50 (XF498)?
**A.** > 100 µM (inactive)

**Q.** And the GI50 (LOX IMVI)?
**A.** > 100 µM (inactive)

**Q.** And the GI50 (786-0)?
**A.** > 100 µM (inactive)

**Q.** What about the GI50 (Malme-3M) of the same compound?
**A.** > 100 µM (inactive)

**Q.** What about the GI50 (MOLT-4) of the same compound?
**A.** 40.3 µM (inactive)

**Q.** What about the GI50 (UACC-62) of the same compound?
**A.** 96.2 µM (inactive)

**Q.** And the GI50 (HCT-116)?
**A.** > 100 µM (inactive)

**Q.** What about the GI50 (NCI-H522) of the same compound?
**A.** 51.1 µM (inactive)

**Q.** And the GI50 (NCI-H23)?
**A.** > 100 µM (inactive)

**Q.** And the GI50 (A498)?
**A.** > 100 µM (inactive)

**Q.** And the GI50 (ACHN)?
**A.** > 100 µM (inactive)

**Q.** What about the GI50 (LXFL 529) of the same compound?
**A.** 88.3 µM (inactive)

**Q.** And the GI50 (SF-539)?
**A.** > 100 µM (inactive)

**Q.** What about the GI50 (U-251) of the same compound?
**A.** > 100 µM (inactive)

**Q.** What about the GI50 (KM-20L2) of the same compound?
**A.** > 100 µM (inactive)

**Q.** What about the GI50 (OVCAR-3) of the same compound?
**A.** > 100 µM (inactive)

**Q.** What about the GI50 (HCT-15) of the same compound?
**A.** > 100 µM

**Q.** What about the GI50 (TK-10) of the same compound?
**A.** > 100 µM (inactive)

**Q.** And the GI50 (UO-31)?
**A.** 61.1 µM (inactive)

**Q.** What about the GI50 (HL-60) of the same compound?
**A.** 49.9 µM (inactive)

**Q.** And the GI50 (SW-620)?
**A.** > 100 µM (inactive)

**Q.** And the GI50 (RPMI-8226)?
**A.** 57.7 µM (inactive)

**Q.** And the GI50 (CCRF-CEM)?
**A.** > 100 µM (inactive)

**Q.** And the GI50 (SK-OV-3)?
**A.** > 100 µM (inactive)

**Q.** And the GI50 (EKVX)?
**A.** 88.5 µM (inactive)

**Q.** And the GI50 (M14)?
**A.** > 100 µM (inactive)

**Q.** What about the GI50 (HT-29) of the same compound?
**A.** > 100 µM (inactive)

**Q.** What about the GI50 (RXF 631) of the same compound?
**A.** > 100 µM (inactive)

**Q.** What about the GI50 (A549) of the same compound?
**A.** > 100 µM (inactive)

**Q.** And the GI50 (HOP-92)?
**A.** 18.3 µM (inactive)

**Q.** What about the GI50 (SNB-78) of the same compound?
**A.** > 100 µM (inactive)

**Q.** And the GI50 (NCI-H226)?
**A.** 80.4 µM (inactive)

**Q.** And the GI50 (OVCAR-5)?
**A.** > 100 µM (inactive)

**Q.** What about the GI50 (CAKI-1) of the same compound?
**A.** 63.5 µM (inactive)

**Q.** What about the GI50 (KM12) of the same compound?
**A.** > 100 µM (inactive)

**Q.** And the GI50 (K562)?
**A.** 32.1 µM (inactive)

**Q.** And the GI50 (HCC 2998)?
**A.** > 100 µM (inactive)

**Q.** And the GI50 (IGROV-1)?
**A.** > 100 µM (inactive)

**Q.** And the GI50 (DMS-273)?
**A.** > 100 µM (inactive)

**Q.** What about the GI50 (SN12C) of the same compound?
**A.** > 100 µM (inactive)

**Q.** What about the GI50 (HOP-62) of the same compound?
**A.** > 100 µM (inactive)

**Q.** What about the GI50 (SF-268) of the same compound?
**A.** > 100 µM (inactive)

**Q.** What about the GI50 (OVCAR-8) of the same compound?
**A.** > 100 µM (inactive)

**Q.** What about the GI50 (SF-295) of the same compound?
**A.** > 100 µM (inactive)

**Q.** What about the GI50 (COLO 205) of the same compound?
**A.** > 100 µM (inactive)

**Q.** What about the GI50 (M19-MEL) of the same compound?
**A.** > 100 µM (inactive)

**Q.** And the GI50 (DLD-1)?
**A.** > 100 µM (inactive)

**Q.** And the GI50 (OVCAR-4)?
**A.** 80.9 µM (inactive)

**Q.** What about the GI50 (SNB-19) of the same compound?
**A.** > 100 µM (inactive)
